# Reference: PMC6811792, “The Binding Affinity of Small Molecules with Yam Tyrosinase (Catechol Oxidase): A Biophysical Study” (Biochemistry Research International, 2019)
# Read-outs that look alike come from different tables or passages of the source.
# Legend:
# yam tyrosinase [1] = target: yam tyrosinase; set-up: method as in PMID 29246874; conditions: SPR, two-state model, substrate; cited from earlier work
# yam tyrosinase [2] = assay: SPR interaction kinetics of single analytes with immobilized yam tyrosinase, two-state model; type: binding, Amorphophallus paeoniifolius
# Experimental: SPR interaction studies were carried out using a Biocore X100 optical biosensor (GE Healthcare Life Sciences, Uppsala, Sweden). All the SPR measurements were performed in phosphate buffer saline (PBS; 10.1 mM Na2PO4, 1.8 mM KH2PO4, 137 mM NaCl, 2.7 mM KCl, pH 7.4, 0.005% P20). Initially, working dilutions were prepared from the analyte stock solution in PBS only and then allowed to flow through the sensor surface. Biocore control software version 2.2 was used for data collection. Refractive index changes as a function of time under constant flow condition are monitored by the system, and accordingly, experiments were performed. […] There is an inline subtraction of reference surface during the run. This change is usually reported in terms of response units (RUs). The surface of the chip is washed with PBS (running buffer) between each concentration.
# The method of amine coupling was employed for the immobilization of yam tyrosinase which was dissolved (50 μg/mL) in 0.1 M sodium acetate buffer with pH value 4.5 as per the pH scouting study in [15]. Yam tyrosinase was immobilized on sensor chip series S CM5. Flow cell on the chip surface was activated for 7 min using a 1 : 1 mixture of 100 mM […] (EDC) and 100 mM N-hydroxysuccinimide (NHS) (both dissolved in water), and subsequently, tyrosinase was injected for 7 min, followed by injection of 1 M ethanolamine, pH 8.5 to block nonreactive sites. For this study, flow cell 3 was blank immobilized (without protein) as reference.
# Crocin and kojic acid are natural tyrosinase inhibitors, whereas hydroquinone is a synthetic inhibitor. The grouping of inhibitors was simply based on the efficiency, size, solubility, and origin of inhibitors. […] PBS was used as the running buffer. The flow rate was constant (45 μL/min) throughout the experiment. The contact time (association time) and dissociation time were fixed to 120 s. Experiments were performed with different concentrations of individual inhibitors based on their solubilities: crocin (0.156–2.5 mM), hydroquinone (0.625–10 mM), kojic acid ([…]), and L-DOPA (5–80 mM). These concentrations were optimized by repeating the SPR experiments several times to achieve appropriate binding interactions. […] Regeneration was carried out with 10 mM glycine pH 2.5 for 30 s. Binding analysis was evaluated using the heterogeneous analyte kinetics model. After each cycle of regeneration, the activity of the enzyme was checked by injecting a single concentration of L-DOPA, and RU response was observed. The data analyses were done with Biacore X100 evaluation software version 2.2, and data were fit to two-state binding and/or heterogeneous analyte binding.
# Flow rate was maintained at 45 μL/min. Contact time and dissociation time were kept at 120 s and 200 s. Regeneration was carried out using 10 mM glycine HCl at pH 2.5 for 30 s and at 30 μL/min. The data analysis was performed with Biacore X100 evaluation software version 2.0.1, and data were fit to two states. Each concentration represents sensorgram in the increasing order of curves. Crocin with concentrations (0.156, 0.312, 0.625, 1.25, and 2.5 mM) was injected over the enzyme surface (a). Kojic acid with concentrations (0.0156, 0.0312, 0.0625, 0.125, and 0.25 mM) was injected over the enzyme surface (b). Hydroquinone with concentrations (0.625, 1.25, 2.5, 5.0, and 10 mM) was injected over enzyme surface (c). L-DOPA with concentrations (5, 10, 20, 40 and 80 mM) was injected over the enzyme surface (d).
# yam tyrosinase [3] = assay: Diphenolase activity assay (dopachrome at 475 nm, L-DOPA substrate); type: biochemical, Amorphophallus paeoniifolius; conditions: 2 mM L-DOPA, pH 7.0, 30°C
# Experimental: The reaction mixture (3 mL) contained 2 mM of L-DOPA in 50 mM potassium phosphate buffer (pH 7.0); a portion of 100 μL of the enzyme was used for the activity assay. The reaction was carried out at a constant temperature of 30°C using a Shimadzu UV visible spectrophotometer. IC50 values were calculated as per the formula reported earlier.
k a1 (yam tyrosinase [2]; PBS pH 7.4) [M⁻¹ s⁻¹],k a2 (yam tyrosinase [2]; PBS pH 7.4) [s⁻¹],k d1 (yam tyrosinase [2]; PBS pH 7.4) [s⁻¹],k d2 (yam tyrosinase [2]; PBS pH 7.4) [s⁻¹],IC50 (yam tyrosinase [3]) [µM],Kd (yam tyrosinase [2]; PBS pH 7.4) [µM],"Kd (yam tyrosinase [2]; PBS pH 7.4, listed as crocin) [µM]",SMILES,Kd (yam tyrosinase [1]) [µM],k a1 (yam tyrosinase [1]),k a2 (yam tyrosinase [1]),k d1 (yam tyrosinase [1]) [s⁻¹],k d2 (yam tyrosinase [1]) [s⁻¹]
–,–,–,–,–,–,–,"N[C@@H](Cc1ccc(O)c(O)c1)C(=O)O [L-DOPA, L-3 dihydroxyphenylalanine]",1.35,9.54 × 10^4 1/ms,0.001544 ± 1.50 × 10^4 1/s,0.5089 ± 0.085,0.000523 ± 8.4e-05
2.89 ± 0.13,0.001569 ± 3.5e-05,0.9166 ± 0.02,0.005185 ± 0.00013,1500,–,–,"Oc1ccc(O)cc1 [Hydroquinone, hydroquinone]",–,–,–,–,–
224 ± 11,0.003525 ± 9.7e-05,0.5772 ± 0.025,0.006429 ± 0.00014,1000,1660,1700,"CC(/C=C/C=C(\C)C(=O)O[C@@H]1O[C@H](CO[C@@H]2O[C@H](CO)[C@@H](O)[C@H](O)[C@H]2O)[C@@H](O)[C@H](O)[C@H]1O)=C\C=C\C=C(C)\C=C\C=C(/C)C(=O)O[C@@H]1O[C@H](CO[C@@H]2O[C@H](CO)[C@@H](O)[C@H](O)[C@H]2O)[C@@H](O)[C@H](O)[C@H]1O [Crocin, crocin]",–,–,–,–,–
334 ± 16,0.00539 ± 7.8e-05,0.03182 ± 0.0013,–,0.1,6.39,–,O=c1cc(CO)occ1O [Kojic acid],–,–,–,–,–
